Results from patent EP3807270B1, “NOVEL HETEROARYL HETEROCYCLYL COMPOUNDS FOR THE TREATMENT OF AUTOIMMUNE DISEASE” (F. Hoffmann-La Roche AG, priority 2018, dated 2019).

What follows are compounds tested against T1, human TLR8 (Homo sapiens, UniProt Q9NR97) (assay: HEK293-Blue-hTLR-8 cells assay (SEAP reporter, R848 stimulation)). Settings: HEK293-Blue-hTLR8 cells, R848, 20 hrs; read-out: HEK/hTLR8 IC50.
T1 construct: host or cells: HEK293 (HEK-Blue)
T1 sequence (Q9NR97 27-1041): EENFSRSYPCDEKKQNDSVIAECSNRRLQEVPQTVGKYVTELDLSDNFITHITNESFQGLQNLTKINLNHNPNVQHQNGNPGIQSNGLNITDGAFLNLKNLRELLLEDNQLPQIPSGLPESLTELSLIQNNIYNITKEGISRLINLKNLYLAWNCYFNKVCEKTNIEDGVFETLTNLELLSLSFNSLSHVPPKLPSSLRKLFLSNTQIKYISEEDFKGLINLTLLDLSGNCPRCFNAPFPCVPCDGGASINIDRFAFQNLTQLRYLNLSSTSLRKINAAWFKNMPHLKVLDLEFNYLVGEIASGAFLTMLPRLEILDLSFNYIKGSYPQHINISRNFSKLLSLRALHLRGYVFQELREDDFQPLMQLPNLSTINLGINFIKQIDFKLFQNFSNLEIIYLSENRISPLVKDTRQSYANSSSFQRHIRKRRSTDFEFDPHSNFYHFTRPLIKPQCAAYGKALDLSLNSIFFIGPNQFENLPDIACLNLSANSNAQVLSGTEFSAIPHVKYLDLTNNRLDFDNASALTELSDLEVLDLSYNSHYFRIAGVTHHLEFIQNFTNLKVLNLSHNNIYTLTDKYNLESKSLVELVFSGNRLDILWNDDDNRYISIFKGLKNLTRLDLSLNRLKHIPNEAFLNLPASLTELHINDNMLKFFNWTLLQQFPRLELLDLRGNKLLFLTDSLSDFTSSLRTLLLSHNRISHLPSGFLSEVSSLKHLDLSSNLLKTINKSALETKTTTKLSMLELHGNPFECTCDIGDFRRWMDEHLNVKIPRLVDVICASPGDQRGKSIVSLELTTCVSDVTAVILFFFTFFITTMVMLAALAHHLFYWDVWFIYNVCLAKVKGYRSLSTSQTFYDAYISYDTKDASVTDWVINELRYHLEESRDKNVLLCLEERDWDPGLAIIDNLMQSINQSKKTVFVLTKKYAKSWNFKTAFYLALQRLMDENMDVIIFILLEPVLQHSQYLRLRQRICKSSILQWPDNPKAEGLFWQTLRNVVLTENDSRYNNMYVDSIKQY
Format: cell-based
Excerpt: A stable HEK293-Blue-hTLR-8 cell line was purchased from InvivoGen (Cat.#: hkb-htlr8, San Diego, California, USA). These cells were originally designed for studying the stimulation of human TLR8 by monitoring the activation of NF-κB. A SEAP (secreted embryonic alkaline phosphatase) reporter gene was placed under the control of the IFN-β minimal promoter fused to five NF-κB and AP-1-binding sites. The SEAP was induced by activating NF-κB and AP-1 via stimulating HEK-Blue hTLR8 cells with TLR8 ligands. Therefore, the reporter expression was declined by TLR8 antagonist under the stimulation of a ligand, such as R848, for incubation of 20 hrs. The cell culture supernatant SEAP reporter activity was determined using QUANTI-Blue™ kit (Cat.#: rep-qb1, Invivogen, San Diego, Ca, USA) at a wavelength of 640 nm, a detection medium that turns purple or blue in the presence of alkaline phosphatase.
HEK293-Blue-hTLR8 cells were incubated at a density of 250,000-450,000 cells/mL in a volume of 170 µL in a 96-well plate in Dulbecco's Modified Eagle's medium (DMEM) containing 4.5 g/L glucose, 50 U/mL penicillin, […], […], 2 mM L-glutamine, 10% (v/v) heat-inactivated fetal bovine serum with addition of 20 µL test compound in a serial dilution in the presence of final DMSO at 1% and 10 µL of 60uM R848 in above DMEM, perform incubation under 37 °C in a CO2 incubator for 20 hrs. Then 20 µL of the supernatant from each well was incubated with 180 µL Quanti-blue substrate solution at 37°C for 2 hrs and the absorbance was read at 620-655 nm using a spectrophotometer. The signaling pathway that TLR8 activation leads to downstream NF-κB activation has been widely accepted, and therefore similar reporter assay was modified for evaluating TLR8 antagonist.

IC50 | SMILES
20 nM | C[C@@H]1CN(c2ccc(C#N)c3ncccc23)C[C@H](CN2CC3(C2)CN(c2cnc4c(c2)CNCC4)CCO3)O1 [Example 47, 5-[(2R,6S)-2-methyl-6-[[8-(5,6,7,8-tetrahydro-1,6-naphthyridin-3-yl)-5-oxa-2,8-diazaspiro[3.5]nonan-2-yl]methyl]morpholin-4-yl]quinoline-8-carbonitrile]
37 nM | C[C@@H]1CN(c2ccc(C#N)c3ncccc23)C[C@H](CN2CCC(Nc3ncc4c(n3)CCNC4)C2)O1 (stereo partly drawn) [Example 57, 5-[(2R,6S)-2-methyl-6-[[3-(5,6,7,8-tetrahydropyrido [4,3-d]pyrimidin-2-ylamino)pyrrolidin-1-yl]methyl]morpholin-4-yl] quinoline-8-carbonitrile]
3 nM | C[C@@H]1CN(c2ccc(C#N)c3nccnc23)C[C@H](CN2CCN(c3cc4c(cn3)C[C@H](C)NC4)CC2)O1 (single isomer, unassigned) [Example 81]
4 nM | C[C@@H]1Cc2cc(N3CCN(C[C@H]4CN(c5ccc(C#N)c6ncccc56)C[C@@H](C)O4)CC3)ncc2CN1 (single isomer, unassigned) [Example 70]
5 nM | C[C@@H]1CN(c2ccc(C#N)c3ncccc23)C[C@H](CN2CCN(c3cc4c(cn3)C[C@H](C)NC4)CC2)O1 (single isomer, unassigned) [Example 76]
< 3 nM | C[C@@H]1CN(c2ccc(C#N)c3ncccc23)C[C@H](CN2CCN(c3nc4c(s3)CNCC4)CC2)O1 [Example 31, 5-[(2R,6S)-2-methyl-6-[[4-(4,5,6,7-tetrahydrothiazolo[5,4-c]pyridin-2-yl)piperazin-1-yl]methyl]morpholin-4-yl]quinoline-8-carbonitrile]
49 nM | C[C@@H]1CN(c2ccc(C#N)n3ncc(F)c23)C[C@H](CN2CCN(c3cnc4c(c3)CNC4)CC2)O1 [Example 26, 4-[(2S,6R)-2-[[4-(6,7-dihydro-5H-pyrrolo[3,4-b]pyridin-3-yl)piperazin-1-yl]methyl]-6-methyl-morpholin-4-yl]-3-fluoro-pyrazolo[1,5-a]pyridine-7-carbonitrile]
17 nM | C[C@@H]1CN(c2ccc(C#N)c3nccnc23)C[C@H](CN2CCN(c3cnc4c(c3)CNC4)CC2)O1 [Example 25, 8-[(2S,6R)-2-[[4-(6,7-dihydro-5H-pyrrolo[3,4-b]pyridin-3-yl)piperazin-1-yl]methyl]-6-methyl-morpholin-4-yl] quinoxaline-5-carbonitrile]
342 nM | C[C@@H]1CN(c2ccc(C#N)c3ncccc23)C[C@H](CN2CCN(c3ccc(Cl)cc3)CC2)O1 [Example R2, 5-[(2S,6R)-2-[[4-(4-chlorophenyl)piperazin-1-yl]methyl]-6-methyl-morpholin-4-yl]quinoline-8-carbonitrile, reference compound]
13 nM | CC1NCc2cc(N3CCN(C[C@H]4CN(c5ccc(C#N)c6ncccc56)C[C@@H](C)O4)CC3)ccc21 (stereo partly drawn) [Example 28, 5-[(2R,6S)-2-methyl-6-[[4-(1-methylisoindolin-5-yl)piperazin-1-yl]methyl]morpholin-4-yl]quinoline-8-carbonitrile]
54 nM | C[C@@H]1CN(c2ccc(C#N)c3ncccc23)C[C@H](CNC2CN(c3cnc4c(c3)CNC4)C2)O1 [Example 43, 5-[(2S,6R)-2-[[[1-(6,7-dihydro-5H-pyrrolo[3,4-b]pyridin-3-yl)azetidin-3-yl]amino]methyl]-6-methyl-morpholin-4-yl]quinoline-8-carbonitrile]
2 nM | C[C@@H]1Cc2cc(N3CCN(C[C@H]4CN(c5ccc(C#N)c6nccnc56)C[C@@H](C)O4)CC3)ncc2CN1 (single isomer, unassigned) [Example 83]
< 3 nM | C[C@@H]1CN(c2ccc(C#N)c3ncccc23)C[C@H](CN2CC3(C2)CN(c2ccc4c(n2)CCNC4)CCO3)O1 [Example 49, 5-[(2R,6S)-2-methyl-6-[[8-(5,6,7,8-tetrahydro-1,6-naphthyridin-2-yl)-5-oxa-2,8-diazaspiro[3.5]nonan-2-yl]methyl]morpholin-4-yl]quinoline-8-carbonitrile]
17 nM | CC1NCc2ncc(N3CCN(C[C@H]4CN(c5ccc(C#N)c6ncccc56)C[C@@H](C)O4)CC3)cc21 (stereo partly drawn) [Example 41, 5-[(2R,6S)-2-methyl-6-[[4-(5-methyl-6,7-dihydro-5H-pyrrolo[3,4-b]pyridin-3-yl)piperazin-1-yl]methyl]morpholin-4-yl]quinoline-8-carbonitrile]
4 nM | C[C@@H]1CN(c2ccc(C#N)c3ncccc23)C[C@H](CN2CCN(c3cnc4c(n3)CCNC4)CC2)O1 [Example 17, 5-[(2R,6S)-2-methyl-6-[[4-(5,6,7,8-tetrahydropyrido[3,4-b]pyrazin-2-yl)piperazin-1-yl]methyl]morpholin-4-yl]quinoline-8-carbonitrile]
4 nM | C[C@@H]1CN(c2ccc(C#N)c3ncccc23)C[C@H](CN2CC3(C2)CN(c2ccc4c(c2)CCNC4)CCO3)O1 [Example 44, 5-[(2R,6S)-2-methyl-6-[[8-(1,2,3,4-tetrahydroisoquinolin-6-yl)-5-oxa-2,8-diazaspiro[3.5]nonan-2-yl]methyl]morpholin-4-yl]quinoline-8-carbonitrile]
2 nM | C[C@@H]1CN(c2ccc(C#N)c3nccnc23)C[C@H](CN2CCN(c3ccc4c(n3)CN[C@H]4C)CC2)O1 (single isomer, unassigned) [Example 78]
4 nM | C[C@@H]1CN(c2ccc(C#N)c3ncccc23)C[C@H](CN2CCN(c3ccc4c(n3)CCNC4)CC2)O1 [Example 14, 5-[(2R,6S)-2-methyl-6-[[4-(5,6,7,8-tetrahydro-1,6-naphthyridin-2-yl)piperazin-1-yl]methyl]morpholin-4-yl]quinoline-8-carbonitrile]
23 nM | C[C@@H]1CN(c2ccc(C#N)c3ncccc23)C[C@H](CN2CCN(c3ccc4c(n3)CCNC4)C[C@@H](O)C2)O1 (single isomer, unassigned) [Example 35B]
8 nM | C[C@@H]1CN(c2ccc(C#N)c3ncccc23)C[C@H](CN2CCN(c3cccc4c3CNC4)CC2)O1 [Example 2, 5-[(2S,6R)-2-[(4-isoindolin-4-ylpiperazin-1-yl)methyl]-6-methyl-morpholin-4-yl] quinoline-8-carbonitrile]
16 nM | C[C@@H]1CN(c2ccc(C#N)c3ncccc23)C[C@H](CN2CCN(c3cnc4c(c3)CN[C@@H]4C)CC2)O1 (single isomer, unassigned) [Example 68]
6 nM | C[C@@H]1CN(c2ccc(C#N)c3ncccc23)C[C@H](CN2CCN(c3cc4c(cn3)CCNC4)CC2)O1 [Example 20, 5-[(2R,6S)-2-methyl-6-[[4-(5,6,7,8-tetrahydro-2,6-naphthyridin-3-yl)piperazin-1-yl]methyl]morpholin-4-yl]quinoline-8-carbonitrile]
107 nM | C[C@@H]1CN(c2ccc(C#N)c3ncccc23)C[C@H](CN2CCC(Nc3ncc4c(n3)CNC4)C2)O1 (stereo partly drawn) [Example 32, 5-[(2S,6R)-2-[[3-(6,7-dihydro-5H-pyrrolo[3,4-d]pyrimidin-2-ylamino)pyrrolidin-1-yl]methyl]-6-methyl-morpholin-4-yl]quinoline-8-carbonitrile]
16 nM | C[C@@H]1CN(c2ccc(C#N)c3ncccc23)C[C@H](CN2C[C@H]3CN(c4ccc5c(n4)CCNC5)CC[C@H]32)O1 (single isomer, unassigned) [Example 55]
